Reference: US20260250250A1, “3-(SULPHONYL OR SULFONIMIDOYL)PROP-2-EN-1-YL]-2-OXO-1,2-DIHYDROPYRIDINE-3-CARBOXAMIDE DERIVATIVES” (Flinder Therapeutics B.V., priority 2022, published 2026)

Key:
[1] = molecular target: T1, human E3 ubiquitin-protein ligase RNF31 (HOIP) (Homo sapiens, UniProt Q96EP0); assay: Cell-free HTRF-based HOIP inhibition assay; format: biochemical
T1 sequence (Q96EP0 695-1072 limits assumed): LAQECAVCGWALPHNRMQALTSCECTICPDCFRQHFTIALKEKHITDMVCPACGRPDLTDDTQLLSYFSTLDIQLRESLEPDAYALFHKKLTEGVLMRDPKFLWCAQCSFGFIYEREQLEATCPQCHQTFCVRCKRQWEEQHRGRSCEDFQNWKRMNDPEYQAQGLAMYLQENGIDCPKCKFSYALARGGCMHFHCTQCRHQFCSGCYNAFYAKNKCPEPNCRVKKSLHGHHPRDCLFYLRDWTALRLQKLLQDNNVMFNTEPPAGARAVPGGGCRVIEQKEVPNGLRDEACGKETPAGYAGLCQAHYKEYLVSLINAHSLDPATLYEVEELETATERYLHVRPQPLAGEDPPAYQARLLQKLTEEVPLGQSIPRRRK
Procedure, shortened: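 HTRF read (ex 337 nm; em 665 and 620 nm) after a 2.5 h, 25° C. ubiquitination step started by adding E2 plus substrates. Before that, E. coli-expressed human HOIP fragment and E1 were incubated 1 h at 25° C. with compound at 100-0.005 μM, 1% DMSO final.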

[2] = system: bladder carcinoma RT4 cell line; assay: TNF-α-induced cytotoxicity assay (CellTiter-Glo viability); format: cell-based; conditions: Homo sapiens, RT-4, 72 h
Procedure, shortened: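 RT4 bladder carcinoma cells, 1000 per well, stimulated with 1.25 ng/mL TNFα together with compound for 72 h at 37° C., 5% CO2. Viability read by CellTiter-Glo luminescence, proportional to cellular ATP, as a measure of HOIP-dependent cytotoxicity.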

NF-κB signaling pathway = assay: Cell-based dual luciferase NF-κB reporter assay (HEK293 cells, TNF stimulated); conditions: Homo sapiens, HEK293
Procedure, shortened: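 HEK293 cells transfected with Firefly luciferase and NF-κB-response-element NanoLuc plasmids; compounds at 100–0.005 µM in 1% DMSO. Cells stimulated with 2.5 ng/mL TNF 30 min after compound addition. Firefly and NanoLuc activities read after 6 h by Nano-Glo dual-luciferase detection.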

| Compound | IC50 [1] [µM] | IC50 (NF-κB signaling pathway) [µM] | IC50 [2] [µM] |
| --- | --- | --- | --- |
| O=C(NC/C=C/S(=O)(=O)c1ccccc1)c1cc2c([nH]c1=O)CCN(Cc1cccnc1)C2 [Example 104, N-[(2E)-3-(benzenesulfonyl)prop-2-en-1-yl]-2-oxo-6-[(pyridin-3-yl)methyl]-1,2,5,6,7,8-hexahydro-1,6-naphthyridine-3-carboxamide] | ≤ 1 | ≤ 10 | ≤ 10 |
| COc1ccc(S(=N)(=O)/C=C/CNC(=O)c2cc3c([nH]c2=O)CCCC3)c(C)c1 (stereo not drawn) [Example 139, N-[(2E)-3-[imino(4-methoxy-2-methylphenyl)oxo-λ^6-sulfanyl]prop-2-en-1-yl]-2-oxo-1,2,5,6,7,8-hexahydroquinoline-3-carboxamide] | ≤ 1 | ≤ 1 | ≤ 1 |
| O=C(NC/C=C/S(=O)(=O)c1ccccc1)c1cc2c([nH]c1=O)CCN(C(=O)OC1CC1)C2 [Example 78, cyclopropyl 3-{[(2E)-3-(benzenesulfonyl)prop-2-en-1-yl]carbamoyl}-2-oxo-1,2,5,6,7,8-hexahydro-1,6-naphthyridine-6-carboxylate] | ≤ 1 | ≤ 1 | ≤ 10 |
| CC(C)(C)CC(=O)N1CCc2[nH]c(=O)c(C(=O)NC/C=C/S(=O)(=O)c3ccccc3)cc2C1 [Example 120, N-[(2E)-3-(benzenesulfonyl)prop-2-en-1-yl]-6-(3,3-dimethylbutanoyl)-2-oxo-1,2,5,6,7,8-hexahydro-1,6-naphthyridine-3-carboxamide] | ≤ 1 | ≤ 10 | ≤ 10 |
| O=C(NC/C=C/S(=O)(=O)c1ccccc1)c1cc2c([nH]c1=O)CCN(C(=O)OCC1CC1(F)F)C2 (stereo not drawn) [Example 74, (2,2-difluorocyclopropyl)methyl 3-{[(2E)-3-(benzenesulfonyl)prop-2-en-1-yl]carbamoyl}-2-oxo-1,2,5,6,7,8-hexahydro-1,6-naphthyridine-6-carboxylate] | ≤ 1 | ≤ 1 | ≤ 10 |
| COCCOC(=O)N1CCc2[nH]c(=O)c(C(=O)NC/C=C/S(=O)(=O)c3ccccc3)cc2C1 [Example 80, 2-Methoxyethyl 3-{[(2E)-3-(benzenesulfonyl)prop-2-en-1-yl]carbamoyl}-2-oxo-1,2,5,6,7,8-hexahydro-1,6-naphthyridine-6-carboxylate] | ≤ 1 | ≤ 100 | ≤ 10 |

The next lines start with results.

| IC50 [1] [µM] | IC50 (NF-κB signaling pathway) [µM] | Compound | IC50 [2] [µM] |
| --- | --- | --- | --- |
| ≤ 0.1 | ≤ 1 | CC1(C)CC1COC(=O)N1CCc2[nH]c(=O)c(C(=O)NC/C=C/S(=O)(=O)c3ccc(Cl)cc3)cc2C1 (stereo not drawn) [Example 85, (2,2-dimethylcyclopropyl)methyl 3-{[(2E)-3-(4-chlorobenzenesulfonyl)prop-2-en-1-yl]carbamoyl}-2-oxo-1,2,5,6,7,8-hexahydro-1,6-naphthyridine-6-carboxylate] | ≤ 1 |
| ≤ 0.1 | ≤ 1 | O=C(NC/C=C/S(=O)(=O)c1ccc(Cl)cc1)c1cc2c([nH]c1=O)CCN(Cc1ccccc1)C2 [Example 29, 6-benzyl-N-[(2E)-3-(4-chlorobenzenesulfonyl)prop-2-en-1-yl]-2-oxo-1,2,5,6,7,8-hexahydro-1,6-naphthyridine-3-carboxamide] | ≤ 1 |
| ≤ 0.1 | ≤ 1 | CC(C)COC(=O)N1CCc2[nH]c(=O)c(C(=O)NC/C=C/S(=O)(=O)c3ccccc3)cc2C1 [Example 119, 2-methylpropyl 3-{[(2E)-3-(benzenesulfonyl)prop-2-en-1-yl]carbamoyl}-2-oxo-1,2,5,6,7,8-hexahydro-1,6-naphthyridine-6-carboxylate] | ≤ 1 |
| ≤ 0.1 | ≤ 1 | COc1ccc(S(=N)(=O)/C=C/CNC(=O)c2cc3ccccc3[nH]c2=O)cc1F (stereo not drawn) [Example 143, N-[(2E)-3-[(3-fluoro-4-methoxyphenyl)(imino)oxo-λ^6-sulfanyl]prop-2-en-1-yl]-2-oxo-1,2-dihydroquinoline-3-carboxamide] | ≤ 1 |
